Publication PMC2897950 (Cellular microbiology, 2010)

Target: T1, EhSir2a (EhSir2a-HH) (Entamoeba histolytica, UniProt C4LSH3)
T1 sequence (C4LSH3 1-383): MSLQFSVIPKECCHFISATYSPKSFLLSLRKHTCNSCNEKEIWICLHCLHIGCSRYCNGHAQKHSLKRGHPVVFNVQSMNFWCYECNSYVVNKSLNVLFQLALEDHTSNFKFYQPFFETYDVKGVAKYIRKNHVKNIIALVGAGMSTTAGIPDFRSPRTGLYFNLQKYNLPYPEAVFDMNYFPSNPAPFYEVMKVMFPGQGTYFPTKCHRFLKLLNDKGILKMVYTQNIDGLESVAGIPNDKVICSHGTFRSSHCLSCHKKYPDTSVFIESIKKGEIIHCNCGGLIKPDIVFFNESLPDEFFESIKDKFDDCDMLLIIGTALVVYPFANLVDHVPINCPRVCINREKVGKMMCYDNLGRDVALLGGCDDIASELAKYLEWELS
Experiment: fluorescent deacetylase assay
Assay type: biochemical
Details: 500 µM NAD+, 37 °C, 2 h; co-substrate of deacetylation

NC(=O)c1ccc[n+]([C@@H]2O[C@H](COP(=O)(O)OP(=O)(O)OC[C@H]3O[C@@H](n4cnc5c(N)ncnc54)[C@H](O)[C@@H]3O)[C@@H](O)[C@H]2O)c1 [NAD^+]
fluorescent deacetylase assay (Biomol kit), enzyme on Ni-NTA beads: EhSir2a showed high levels of deacetylase activity when NAD^+ was added
